pEC50: −log10 of the molar value.
Columns and labels:
NURR-1/RXRα = target: T1, NURR-1/RXRα (Homo sapiens, UniProt P19793); experiment: Transactivation test, NURR-1-Gal4/RXRα, luciferase reporter in Cos-7 cells; format: cell-based; conditions: for Emax: COS-7, induction level relative to reference XCT0135908 at 2×10^−5 M (=100%), read-out: hNurr1_RXRaFL Emax (%); for pEC50: Cos-7 cells, NURR-1-Gal4/RXRα, luciferase reporter, read-out: hNurr1_RXRaFL EC50
T1 construct: expressed in transfected cells; host or cells: Cos-7 cells

[1] = tested on: dopaminergic neurons of primary culture of rat embryo mesencephalon treated with MPP+; experiment: Neuroprotection in primary culture of rat embryo mesencephalon treated with MPP+ (count of tyrosine hydroxylase expressing cells); format: cell-based; conditions: recombinant human BDNF 10 ng/mL = 100%, 2 days with MPP+
Outline: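 Rat embryo (E15) mesencephalon cultures, 5 days, then MPP+ with or without compound on day 6 for 2 days. Tyrosine hydroxylase-immunolabelled cells counted by image analysis; activity expressed as percent of recombinant human BDNF (10 ng/mL) reference, set at 100%.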

[2] = tested on: mice treated with 1-methyl-4-phenyl-1,2,3,6-tetrahydropyridine (MPTP); experiment: Functional activity in a model of mice treated with MPTP (striatal dopamine, TH mRNA in substantia nigra); format: in vivo; conditions: for action of MPTP (decrease in dopamine level in the striatum and in TH expression level in the substantia nigra): C57BL6/J mice, compound orally twice a day for 11 days, MPTP 20 mg/kg ip once a day for 5 days, FIGS. 1 and 2
Procedure: 3. Study of the Functional Activity in a Mouse Model
A third series of […] tests was carried out with the compounds according to the invention, for the purpose of verifying that the molecules indeed have the expected neuroprotective effect.
The compounds of examples 10 and 118 were tested on a model of mice treated with 1-methyl-4-phenyl-1,2,3,6-tetrahydropyridine (MPTP) in order to confirm their potential activity. MPTP is a neurotoxin which causes the permanent symptoms of Parkinson's disease by destroying the dopaminergic neurons in the substantia nigra. The following protocol: was used.
Male C57BL6/J mice, 10-12 weeks old at the beginning of the studies, were divided up into groups of 12 animals. The compounds wee administered orally, twice a day, for 11 days in total. The administration began 3 days before the treatment with the MPTP toxin at 20 mg/kg. The MPTP was administered once a day by intraperitoneal injection, for 5 days. The admistration of the compounds was continued during the 5 days of MPTP treatment and then for a further 3 days after the MPTP treatment. One group of mice received, orally, the carrier alone (solution of methylcellulose at 1%, 0.1% poloxamer). The annuals were eythanized after rhe final gavage and the striatum and the substantia nigra were removed. The dopamine was extracted from the striatum and the amount of dopamine (DA), expressed in ng per g of striatum (mean±SEM), was measured by high-performance liquid chromatography (HPLC) with electrochemical detection. The messenger RNAs were isolated from the substantia nigra, and the expression level of the mRNAs encoding tyrosine hydroxylase (TH) was measured by quantitative PCR.
The results obtained were reported in appended FIGS. 1 and 2.

T1 sequence (P19793 whole entry, the tested form may be a part): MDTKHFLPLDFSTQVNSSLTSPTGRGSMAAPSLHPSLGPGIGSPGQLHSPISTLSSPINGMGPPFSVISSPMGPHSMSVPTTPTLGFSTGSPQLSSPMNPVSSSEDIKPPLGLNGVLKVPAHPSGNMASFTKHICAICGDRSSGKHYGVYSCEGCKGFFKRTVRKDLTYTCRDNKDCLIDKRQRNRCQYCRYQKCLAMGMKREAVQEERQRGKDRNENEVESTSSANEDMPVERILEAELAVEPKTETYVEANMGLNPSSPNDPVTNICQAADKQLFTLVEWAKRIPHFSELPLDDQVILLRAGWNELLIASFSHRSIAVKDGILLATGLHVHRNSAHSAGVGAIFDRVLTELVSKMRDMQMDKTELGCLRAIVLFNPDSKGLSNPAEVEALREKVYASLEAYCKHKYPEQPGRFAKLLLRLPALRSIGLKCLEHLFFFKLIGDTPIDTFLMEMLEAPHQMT
T1 sequence (P43354 whole entry partner, the tested form may be a part): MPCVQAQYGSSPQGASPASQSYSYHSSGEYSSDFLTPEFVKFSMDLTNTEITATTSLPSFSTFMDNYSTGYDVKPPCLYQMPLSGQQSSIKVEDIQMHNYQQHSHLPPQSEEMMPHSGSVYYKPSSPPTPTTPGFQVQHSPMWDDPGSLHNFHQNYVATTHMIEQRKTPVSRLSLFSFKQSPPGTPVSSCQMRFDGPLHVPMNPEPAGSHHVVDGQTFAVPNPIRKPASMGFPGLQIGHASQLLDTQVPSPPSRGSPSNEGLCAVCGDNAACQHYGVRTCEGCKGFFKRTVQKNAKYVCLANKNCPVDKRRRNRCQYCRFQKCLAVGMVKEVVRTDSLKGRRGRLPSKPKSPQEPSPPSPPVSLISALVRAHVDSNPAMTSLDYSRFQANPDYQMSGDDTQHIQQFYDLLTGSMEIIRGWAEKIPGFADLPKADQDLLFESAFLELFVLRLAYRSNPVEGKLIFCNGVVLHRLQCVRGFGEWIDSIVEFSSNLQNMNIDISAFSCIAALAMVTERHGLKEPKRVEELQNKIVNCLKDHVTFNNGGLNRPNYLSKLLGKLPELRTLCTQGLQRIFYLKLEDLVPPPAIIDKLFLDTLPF
T1 sequence (P04386 1-147 partner limits assumed): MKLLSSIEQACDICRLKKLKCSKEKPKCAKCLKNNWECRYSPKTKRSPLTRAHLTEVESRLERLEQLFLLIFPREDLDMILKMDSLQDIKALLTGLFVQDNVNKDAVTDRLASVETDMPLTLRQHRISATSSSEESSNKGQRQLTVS

Row | SMILES | Emax (NURR-1/RXRα) | pEC50 (NURR-1/RXRα) | percentage of activity relative to the BDNF reference ([1]; compound 1 μM) | percentage of activity relative to the BDNF reference ([1]; compound 10 μM) | action of MPTP (decrease in dopamine level in the striatum and in TH expression level in the substantia nigra) [2] | tyrosine hydroxylase (TH) expression level (mRNA, substantia nigra, quantitative PCR) ([2]; orally twice a day for 11 days, MPTP-treated mice)
1 | CC1(C)CCC(C)(C)c2cc(-c3cccc(N4CC(C(=O)O)C4)c3)ccc21 [Example 10, 1-[5-(1,1,4,4-tetrametyltetralin-6-yl)phenyl]azetidine-3-carboxylic acid] | 84% | 8.10 | 44% | 74% | decrease the action of MPTP in a dose-dependent manner | 
2 | CC(C)CC1CN(c2cccc(N3CC(C(=O)O)C3)c2)c2ccc(C(F)(F)F)cc2O1 (centres unmarked) [Example 118, 1-[3-[2-isobutyl-7-(trilfuoromethyl)-2,3-dihydro-1,4-benzoxazin-4-yl]phenyl]azetidine-3-carboxylic acid] | 83% | 7.51 | 81% | 61% | decrease the action of MPTP in a dose-dependent manner | capable of re-establishing the tyrosine hydroxylase expression level in the brain
